# Source: the supplement of paper PMC12463676, “Small-molecule dissolution of stress granules by redox modulation benefits ALS models” (Nature Chemical Biology, 2025)
# Legend:
# lipoamide = compound: NC(=O)CCCCC1CCSS1 [lipoamide]; test: thermal stability z-score vs DMSO; higher = more thermally stabilized by treatment; settings: HeLa, lipoamide concentration 100 µM
# Method: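 Cellular thermal proteome profiling in HeLa cells. Cells were treated with 100 µM lipoamide for 1 h, with or without 1 mM arsenate for a further 1 h, then heated to ten temperatures (37-66.3 °C), and soluble protein was quantified by TMT mass spectrometry relative to 0.1% DMSO controls. The thermal stability score (sum of log2 fold changes minus the abundance score) was transformed to a z-score; mean of n = 3 experiments.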
# potassium arsenate = compound: O=[As]([O-])(O)O.[K+] [potassium arsenate]; test: as above; settings: HeLa; arsenate concentration 1 mM
# Method: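 Cellular thermal proteome profiling in HeLa cells treated with 1 mM arsenate for 1 h (DMSO pretreatment), heated to ten temperatures (37-66.3 °C). Soluble protein was quantified by TMT mass spectrometry relative to DMSO controls; the thermal stability score was transformed to a z-score; mean of n = 3 experiments.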
# [1] = arsenate co-treatment: 1 mM arsenate 1 h
# 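Further: each temperature applied for 3 min, abundance score taken as mean log2 fold change at the two lowest temperatures, z-score obtained by mean subtraction and division by SD.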
# UniProt P15586, sequence (P15586 whole entry): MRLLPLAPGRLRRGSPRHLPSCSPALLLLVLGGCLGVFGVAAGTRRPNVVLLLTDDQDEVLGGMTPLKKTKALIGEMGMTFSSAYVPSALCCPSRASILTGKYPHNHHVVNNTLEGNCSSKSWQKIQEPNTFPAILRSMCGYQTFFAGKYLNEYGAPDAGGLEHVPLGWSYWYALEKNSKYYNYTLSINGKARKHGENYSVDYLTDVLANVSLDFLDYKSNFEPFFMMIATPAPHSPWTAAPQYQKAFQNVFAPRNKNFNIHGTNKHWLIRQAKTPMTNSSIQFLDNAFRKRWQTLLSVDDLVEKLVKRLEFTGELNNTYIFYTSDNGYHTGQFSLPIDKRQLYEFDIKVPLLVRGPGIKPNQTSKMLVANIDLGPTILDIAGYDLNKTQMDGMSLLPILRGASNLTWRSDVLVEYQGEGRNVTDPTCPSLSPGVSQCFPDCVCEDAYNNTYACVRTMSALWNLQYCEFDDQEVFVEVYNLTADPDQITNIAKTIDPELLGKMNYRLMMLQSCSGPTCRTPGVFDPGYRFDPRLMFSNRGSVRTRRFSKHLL
# UniProt Q9UKJ3, sequence (Q9UKJ3 whole entry): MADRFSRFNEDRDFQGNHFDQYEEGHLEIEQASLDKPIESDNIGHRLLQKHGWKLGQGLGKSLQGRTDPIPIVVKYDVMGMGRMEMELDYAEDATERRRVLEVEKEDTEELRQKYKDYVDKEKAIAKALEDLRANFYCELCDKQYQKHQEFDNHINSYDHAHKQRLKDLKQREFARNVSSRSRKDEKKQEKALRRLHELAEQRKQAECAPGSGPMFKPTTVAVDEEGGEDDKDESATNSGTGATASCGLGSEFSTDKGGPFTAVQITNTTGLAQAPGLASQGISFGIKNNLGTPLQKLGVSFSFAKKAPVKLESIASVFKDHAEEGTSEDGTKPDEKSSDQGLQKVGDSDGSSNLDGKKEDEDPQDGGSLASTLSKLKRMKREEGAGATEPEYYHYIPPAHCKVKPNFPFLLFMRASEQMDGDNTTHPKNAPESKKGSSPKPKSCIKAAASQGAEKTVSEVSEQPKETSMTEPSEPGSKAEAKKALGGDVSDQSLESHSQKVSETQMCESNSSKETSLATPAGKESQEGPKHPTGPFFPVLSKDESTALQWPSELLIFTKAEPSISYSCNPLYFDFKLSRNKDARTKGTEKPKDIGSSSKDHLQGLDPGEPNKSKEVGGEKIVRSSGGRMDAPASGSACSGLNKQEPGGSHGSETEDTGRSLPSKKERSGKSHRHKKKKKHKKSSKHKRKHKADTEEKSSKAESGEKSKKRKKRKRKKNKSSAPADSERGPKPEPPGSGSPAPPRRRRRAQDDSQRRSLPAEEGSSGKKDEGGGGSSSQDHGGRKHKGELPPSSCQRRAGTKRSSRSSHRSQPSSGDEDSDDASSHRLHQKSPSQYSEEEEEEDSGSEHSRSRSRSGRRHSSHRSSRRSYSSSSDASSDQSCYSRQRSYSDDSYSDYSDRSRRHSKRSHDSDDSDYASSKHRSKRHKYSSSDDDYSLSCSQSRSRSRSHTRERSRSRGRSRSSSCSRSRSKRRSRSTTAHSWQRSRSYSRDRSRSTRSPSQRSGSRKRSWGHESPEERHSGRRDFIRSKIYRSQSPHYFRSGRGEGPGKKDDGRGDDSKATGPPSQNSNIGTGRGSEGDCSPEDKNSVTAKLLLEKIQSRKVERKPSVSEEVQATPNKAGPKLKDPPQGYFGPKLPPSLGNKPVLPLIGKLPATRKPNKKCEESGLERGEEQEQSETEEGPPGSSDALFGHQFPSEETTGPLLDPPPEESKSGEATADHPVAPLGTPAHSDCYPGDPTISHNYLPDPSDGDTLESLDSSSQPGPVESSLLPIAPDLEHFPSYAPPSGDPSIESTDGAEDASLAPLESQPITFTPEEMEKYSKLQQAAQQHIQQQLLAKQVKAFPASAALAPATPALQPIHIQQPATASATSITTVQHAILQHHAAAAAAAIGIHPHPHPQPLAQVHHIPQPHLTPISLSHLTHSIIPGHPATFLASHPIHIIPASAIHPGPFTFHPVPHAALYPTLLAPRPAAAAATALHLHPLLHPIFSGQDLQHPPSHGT
# UniProt P08754, sequence (P08754 whole entry): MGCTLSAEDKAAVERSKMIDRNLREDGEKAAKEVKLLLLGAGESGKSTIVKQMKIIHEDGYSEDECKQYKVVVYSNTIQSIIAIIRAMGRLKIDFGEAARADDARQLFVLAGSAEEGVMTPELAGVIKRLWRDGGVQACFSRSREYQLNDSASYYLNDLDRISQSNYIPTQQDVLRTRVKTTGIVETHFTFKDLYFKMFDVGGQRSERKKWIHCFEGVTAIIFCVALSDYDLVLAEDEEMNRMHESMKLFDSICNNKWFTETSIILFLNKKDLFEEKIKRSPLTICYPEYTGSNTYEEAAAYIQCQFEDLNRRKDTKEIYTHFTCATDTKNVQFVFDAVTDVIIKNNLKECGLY
# UniProt Q96EK6, sequence (Q96EK6 whole entry): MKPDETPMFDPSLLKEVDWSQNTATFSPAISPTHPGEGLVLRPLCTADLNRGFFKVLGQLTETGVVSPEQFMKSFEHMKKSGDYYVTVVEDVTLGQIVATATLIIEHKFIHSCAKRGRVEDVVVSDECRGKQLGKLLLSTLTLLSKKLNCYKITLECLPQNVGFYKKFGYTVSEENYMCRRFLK
# UniProt Q13439, sequence (Q13439 whole entry): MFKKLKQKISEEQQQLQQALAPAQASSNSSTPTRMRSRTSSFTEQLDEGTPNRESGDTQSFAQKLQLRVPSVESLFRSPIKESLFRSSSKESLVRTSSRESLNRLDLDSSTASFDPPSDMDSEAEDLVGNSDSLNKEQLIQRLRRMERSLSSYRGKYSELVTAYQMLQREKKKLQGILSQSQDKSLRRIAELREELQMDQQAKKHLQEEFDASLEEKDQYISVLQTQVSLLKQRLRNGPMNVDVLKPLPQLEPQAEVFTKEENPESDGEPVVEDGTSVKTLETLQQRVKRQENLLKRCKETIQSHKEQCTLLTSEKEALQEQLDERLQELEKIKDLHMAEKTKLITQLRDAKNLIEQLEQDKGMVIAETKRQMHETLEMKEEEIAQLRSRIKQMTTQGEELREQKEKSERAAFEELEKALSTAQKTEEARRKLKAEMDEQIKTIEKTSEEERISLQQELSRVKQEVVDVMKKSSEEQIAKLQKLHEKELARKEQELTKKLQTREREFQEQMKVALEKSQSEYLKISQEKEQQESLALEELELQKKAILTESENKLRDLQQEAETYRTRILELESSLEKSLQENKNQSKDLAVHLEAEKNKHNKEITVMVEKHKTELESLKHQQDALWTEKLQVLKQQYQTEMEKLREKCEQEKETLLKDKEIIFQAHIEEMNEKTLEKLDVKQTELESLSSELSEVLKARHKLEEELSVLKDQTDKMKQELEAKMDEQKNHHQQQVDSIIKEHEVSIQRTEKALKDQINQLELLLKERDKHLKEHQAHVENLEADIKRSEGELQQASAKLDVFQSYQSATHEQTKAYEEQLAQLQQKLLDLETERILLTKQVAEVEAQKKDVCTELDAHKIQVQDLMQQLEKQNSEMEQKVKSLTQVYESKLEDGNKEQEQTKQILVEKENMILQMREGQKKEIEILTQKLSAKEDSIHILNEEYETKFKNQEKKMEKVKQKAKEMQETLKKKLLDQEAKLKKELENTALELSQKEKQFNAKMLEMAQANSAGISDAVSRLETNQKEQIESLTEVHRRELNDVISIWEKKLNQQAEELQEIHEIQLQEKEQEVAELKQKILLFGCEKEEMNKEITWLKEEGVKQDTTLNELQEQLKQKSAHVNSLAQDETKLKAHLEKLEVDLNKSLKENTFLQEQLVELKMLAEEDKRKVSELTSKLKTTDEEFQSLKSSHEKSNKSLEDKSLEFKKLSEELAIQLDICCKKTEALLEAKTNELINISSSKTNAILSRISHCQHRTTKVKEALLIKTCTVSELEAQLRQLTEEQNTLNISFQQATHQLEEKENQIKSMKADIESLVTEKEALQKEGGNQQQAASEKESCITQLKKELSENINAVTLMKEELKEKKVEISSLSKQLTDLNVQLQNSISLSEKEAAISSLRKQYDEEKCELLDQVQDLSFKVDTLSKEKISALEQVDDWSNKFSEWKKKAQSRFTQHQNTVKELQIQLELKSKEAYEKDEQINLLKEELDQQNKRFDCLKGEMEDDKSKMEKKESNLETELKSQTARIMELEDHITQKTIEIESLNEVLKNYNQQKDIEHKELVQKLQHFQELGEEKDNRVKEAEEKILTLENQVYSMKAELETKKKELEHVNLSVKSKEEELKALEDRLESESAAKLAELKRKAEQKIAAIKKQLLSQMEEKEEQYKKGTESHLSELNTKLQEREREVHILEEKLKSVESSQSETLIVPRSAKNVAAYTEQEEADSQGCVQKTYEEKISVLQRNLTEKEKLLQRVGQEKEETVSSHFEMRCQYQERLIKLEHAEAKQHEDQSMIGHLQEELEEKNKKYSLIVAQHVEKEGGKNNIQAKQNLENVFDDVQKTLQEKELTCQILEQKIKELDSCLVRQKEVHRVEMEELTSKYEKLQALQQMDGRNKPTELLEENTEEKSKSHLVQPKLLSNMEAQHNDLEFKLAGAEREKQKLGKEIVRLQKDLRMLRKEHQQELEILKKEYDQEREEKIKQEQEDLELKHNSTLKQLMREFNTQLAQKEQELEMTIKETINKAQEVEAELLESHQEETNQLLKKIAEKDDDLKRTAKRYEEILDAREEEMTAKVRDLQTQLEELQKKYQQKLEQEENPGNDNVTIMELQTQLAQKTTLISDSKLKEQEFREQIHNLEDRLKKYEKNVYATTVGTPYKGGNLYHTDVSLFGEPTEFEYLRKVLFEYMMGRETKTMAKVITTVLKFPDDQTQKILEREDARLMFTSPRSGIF
# UniProt Q7Z5G4, sequence (Q7Z5G4 whole entry): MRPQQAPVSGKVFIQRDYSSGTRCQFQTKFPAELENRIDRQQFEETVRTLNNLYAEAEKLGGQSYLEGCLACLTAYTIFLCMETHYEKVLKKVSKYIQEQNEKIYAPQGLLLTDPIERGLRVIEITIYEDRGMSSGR
# UniProt Q9UBI6, sequence (Q9UBI6 whole entry): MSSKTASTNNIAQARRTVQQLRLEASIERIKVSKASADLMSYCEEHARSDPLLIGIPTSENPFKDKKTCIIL
Target,thermal stability z-score (lipoamide; [1]),thermal stability z-score (lipoamide; arsenate co-treatment: none),thermal stability z-score (potassium arsenate)
GMPS (UniProt P49915),-0.853,-0.447,-0.42
GNA11 (UniProt P29992),0.729,0.404,-1.21
GNA13 (UniProt Q14344),0.187,0.347,-0.441
GNAI1 (UniProt P63096),0.913,1.18,0.0642
GNAI2 (UniProt P04899),0.83,0.313,-0.276
GNAI3 (UniProt P08754),0.0735,0.0764,-1.24
GNAO1 (UniProt P09471),0.151,-0.44,-0.313
GNAQ (UniProt P50148),-0.312,0.15,-1.39
GNAS,0.278,0.172,0.0562
GNB1 (UniProt P62873),0.979,0.0629,-0.776
GNB1L (UniProt Q9BYB4),0.757,-0.25,-0.589
GNB2 (UniProt P62879),0.297,1.21,-0.44
GNB4 (UniProt Q9HAV0),0.329,0.753,-0.65
GNE (UniProt Q9Y223),0.652,0.274,0.317
GNG12 (UniProt Q9UBI6),1.21,1.3,0.329
GNL1 (UniProt P36915),-0.411,-0.369,0.175
GNL2 (UniProt Q13823),-0.195,-0.0312,-1.8
GNL3 (UniProt Q9BVP2),-0.0335,0.0515,-0.437
GNL3L (UniProt Q9NVN8),-0.151,0.0609,-0.0324
GNPAT (UniProt O15228),0.161,0.296,0.518
GNPDA1 (UniProt P46926),0.699,0.687,0.272
GNPDA2 (UniProt Q8TDQ7),-0.212,-0.181,-0.0337
GNPNAT1 (UniProt Q96EK6),0.365,-0.348,-1.03
GNPTAB (UniProt Q3T906),-2.42,-1.66,-0.467

Target,thermal stability z-score (lipoamide; [1]),thermal stability z-score (lipoamide; arsenate co-treatment: none),thermal stability z-score (potassium arsenate)
GNS (UniProt P15586),-0.0525,-0.0481,-0.512
GOLGA1 (UniProt Q92805),-0.956,-0.268,0.92
GOLGA2 (UniProt Q08379),-0.426,-0.0551,0.679
GOLGA3 (UniProt Q08378),0.291,0.128,0.587
GOLGA4 (UniProt Q13439),-0.45,0.00058,0.774
GOLGA5 (UniProt Q8TBA6),0.419,0.582,0.197
GOLGA7 (UniProt Q7Z5G4),-1.29,-0.742,-1.71
GOLGB1 (UniProt Q14789),-0.345,-0.0596,0.886
GOLIM4 (UniProt O00461),-0.589,-0.17,0.283
GOLM1 (UniProt Q8NBJ4),0.000985,-0.136,-0.568
GOLPH3 (UniProt Q9H4A6),-0.65,-0.881,-0.641
GOLPH3L (UniProt Q9H4A5),0.105,-1.21,-0.58
GOLT1B (UniProt Q9Y3E0),0.0321,0.0691,-0.117
GOPC (UniProt Q9HD26),-0.587,0.0054,0.591
GORAB (UniProt Q5T7V8),0.521,0.173,0.527
GORASP2 (UniProt Q9H8Y8),0.45,-0.749,0.824
GOSR1 (UniProt O95249),0.726,0.473,-0.0465
GOT1 (UniProt P17174),0.656,0.623,0.118
GOT2 (UniProt P00505),0.218,0.18,-0.0952
GPAA1 (UniProt O43292),-1.09,-1.12,0.145
GPALPP1 (UniProt Q8IXQ4),-0.0123,0.162,-0.865
GPAM (UniProt Q9HCL2),1.02,-0.15,-0.448
GPAT4 (UniProt Q86UL3),-0.413,0.478,-0.231
GPATCH2 (UniProt Q9NW75),-0.115,0.00549,0.239

Target,thermal stability z-score (lipoamide; [1]),thermal stability z-score (lipoamide; arsenate co-treatment: none),thermal stability z-score (potassium arsenate)
GPATCH4 (UniProt Q5T3I0),1.04,0.36,0.695
GPATCH8 (UniProt Q9UKJ3),1.48,0.761,-0.238
GPATCH11 (UniProt Q8N954),-0.804,-0.268,0.108
GPBP1 (UniProt Q86WP2),-0.514,-0.441,-0.111
GPBP1L1 (UniProt Q9HC44),-0.469,-0.326,0.365
GPCPD1 (UniProt Q9NPB8),0.65,0.136,2.8
GPD1L (UniProt Q8N335),0.106,-0.108,-0.935
GPD2 (UniProt P43304),0.223,0.223,-0.0843
GPHN (UniProt Q9NQX3),-0.406,-0.149,-0.949
GPKOW (UniProt Q92917),0.182,0.0635,-1.58
GPN1 (UniProt Q9HCN4),-0.0201,-0.00238,0.212
GPN2 (UniProt Q9H9Y4),0.0332,0.0213,-0.222
GPN3 (UniProt Q9UHW5),-0.0577,-0.282,-0.524
GPR89A|GPR89B,-0.28,-0.026,-0.0938
GPR107 (UniProt Q5VW38),-0.0315,0.243,0.169
GPR108 (UniProt Q9NPR9),0.455,-0.359,0.967
GPR126 (UniProt Q86SQ4),-1.33,-1.02,-0.42
GPRC5A (UniProt Q8NFJ5),0.158,-0.194,0.816
GPRIN1 (UniProt Q7Z2K8),0.529,-0.0428,-0.256
GPS1 (UniProt Q13098),0.881,0.892,0.904
GPT2 (UniProt Q8TD30),0.342,0.427,-0.153
GPX1 (UniProt P07203),0.0953,0.0517,-0.087
GPX4 (UniProt P36969),-0.524,-0.696,0.286
GPX8 (UniProt Q8TED1),-4.37,-5.4,0.394
